Publication PMC11042424, “Development of a First-in-Class RIPK1 Degrader to Enhance Antitumor Immunity” (Research Square, 2024)

Assays:
MC38 tumors = experiment: Syngeneic MC38 colon cancer model with anti-PD1; type: in vivo
Plasma protein binding = type: in vitro ADME; settings: read-out: bound to plasma proteins (converted)
RIPK1 and VHL = target: T1, RIPK1 and VHL (Homo sapiens, UniProt P40337+Q13546); experiment: NanoBRET live-cell ternary complex assay; type: cell-based; settings: HEK293 cells co-transfected with nLuc-RIPK1 and VHL-Halo
T1 construct: Addgene backbone 87075 (RIPK1 vector, made in house) N273A; host or cells: HEK293T
Experimental: Figure 2 LD4172, a RIPK1 PROTAC, induces potent and highly specific degradation of RIPK1 in a panel of cell lines. A, Chemical structures of RIPK1 PROTAC, LD4172, and its negative control, LD4172-NC. […] B, Quantification of RIPK1 levels in both Jurkat and B16F10 cells treated with LD4172 at indicated concentrations for 24 h, followed by Western blotting. C, DC50 and Dmax of LD4172 in various human and mouse cell lines. DC50, the drug concentration causing 50% protein degradation; Dmax, the maximum level of protein degradation. D, RIPK1 degradation kinetics induced by LD4172 treatment (1 μM) and resynthesis kinetics upon washout of LD4172 in both Jurkat and B16F10 cells. […] G, Time-resolved fluorescence resonance energy transfer (TR-FRET) based biochemical binding assay for RIPK1. […] In total, ~10,000 proteins were quantified in the proteomics experiment. […]
Human RIPK1 cDNA insert was cloned into pLenti6.2-ccdB-nLuc plasmid (87075, Addgene, a kind gift from Taipale Lab) using gateway cloning kit (11791020, Thermo) and standard protocol to obtain pLenti6.2-RIPK1-nLuc fusion vector. […] Immediately before reading the plate, prepare 4x concentrated NanoGlo nLuc substrate (N157, Promega) was prepared by diluting the stock into Opti-MEM 1,000-fold, and the NanoGlo substrate was then added into each well to bring the final concentration to 1x. […]

## Cc1ncsc1-c1ccc([C@H](C)NC(=O)[C@@H]2C[C@@H](O)CN2C(=O)[C@@H](NC(=O)CCCCCCCCCCC(=O)NCCCn2cc(-c3ccc4c(c3)CCN4C(=O)Cc3cccc(OC(F)(F)F)c3)c3c(N)ncnc32)C(C)(C)C)cc1 [LD4172]
MC38 tumors
  tumor response in combination with anti-PD1: substantially sensitized MC38 tumors to anti-PD1 therapy
Plasma protein binding
  fraction unbound: 0.014
RIPK1 and VHL
  ternary complex formation, NanoBRET between RIPK1 and VHL: induced NanoBRET between RIPK1 and VHL
